From PubChem BioAssay (NCI)
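Where inhibition never reached the appropriate level, the endpoint shown equals the highest concentration tested. Otherwise, values were interpolated linearly from a five-concentration, 48-hour dose response in 96-well plates. GI50 is the concentration that inhibits growth by half. TGI is the concentration that stops growth completely.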

What was measured:
Test in all cases: growth of human tumour cells (NCI), 48 h; in the data active = GI50 below about 0.43 µM; inactive = the rest
SK-MEL-28 melanoma = tested on: SK-MEL-28 melanoma
MDA-MB-231 breast = tested on: MDA-MB-231 breast
TK-10 renal = tested on: TK-10 renal
BT-549 breast = tested on: BT-549 breast
OVCAR-4 ovarian = tested on: OVCAR-4 ovarian
NCI-H522 lung = tested on: NCI-H522 lung
RPMI-8226 leukemia = tested on: RPMI-8226 leukemia
SNB-19 CNS = tested on: SNB-19 CNS
ACHN renal = tested on: ACHN renal
CAKI-1 renal = tested on: CAKI-1 renal
CCRF-CEM leukemia = tested on: CCRF-CEM leukemia
SK-OV-3 ovarian = tested on: SK-OV-3 ovarian
SF-295 CNS = tested on: SF-295 CNS
OVCAR-3 ovarian = tested on: OVCAR-3 ovarian
KM12 colon = tested on: KM12 colon
PC-3 prostate = tested on: PC-3 prostate
SN12C renal = tested on: SN12C renal
786-0 renal = tested on: 786-0 renal
SK-MEL-5 melanoma = tested on: SK-MEL-5 melanoma
HCT-116 colon = tested on: HCT-116 colon
SF-268 CNS = tested on: SF-268 CNS
SF-539 CNS = tested on: SF-539 CNS
UACC-62 melanoma = tested on: UACC-62 melanoma
HOP-92 NSCLC = tested on: HOP-92 NSCLC
T-47D breast = tested on: T-47D breast
HOP-62 NSCLC = tested on: HOP-62 NSCLC
U251 CNS = tested on: U251 CNS
LOX IMVI melanoma = tested on: LOX IMVI melanoma
MOLT-4 leukemia = tested on: MOLT-4 leukemia
HCC-2998 colon = tested on: HCC-2998 colon
DU-145 prostate = tested on: DU-145 prostate
OVCAR-8 ovarian = tested on: OVCAR-8 ovarian
HT29 colon = tested on: HT29 colon
MDA-MB-435 = tested on: MDA-MB-435
K-562 leukemia = tested on: K-562 leukemia
NCI/ADR-RES ovarian = tested on: NCI/ADR-RES ovarian
SK-MEL-2 melanoma = tested on: SK-MEL-2 melanoma
NCI-H23 lung = tested on: NCI-H23 lung
EKVX NSCLC = tested on: EKVX NSCLC
HCT-15 colon = tested on: HCT-15 colon
SNB-75 CNS = tested on: SNB-75 CNS
A549 NSCLC = tested on: A549 NSCLC
M14 melanoma = tested on: M14 melanoma
UO-31 renal = tested on: UO-31 renal
SW-620 colon = tested on: SW-620 colon
MCF7 breast = tested on: MCF7 breast
NCI-H460 lung = tested on: NCI-H460 lung
IGROV1 ovarian = tested on: IGROV1 ovarian
SR leukemia = tested on: SR leukemia
A498 renal = tested on: A498 renal
OVCAR-5 ovarian = tested on: OVCAR-5 ovarian
NCI-H226 lung = tested on: NCI-H226 lung
HS 578T breast = tested on: HS 578T breast
UACC-257 melanoma = tested on: UACC-257 melanoma
HL-60(TB) leukemia = tested on: HL-60(TB) leukemia

[N-]=[N+]=NCCCn1c2c(c3cc4c(cc3c1=O)OCO4)C(=O)c1ccccc1-2
87.3 µM: TGI (OVCAR-8 ovarian)
31.3 µM: TGI (SK-MEL-5 melanoma)
13.7 µM: TGI (MOLT-4 leukemia)
86 µM: TGI (ACHN renal)
active: GI50 (MOLT-4 leukemia) 0.0905 µM
> 100 µM: TGI (SK-MEL-28 melanoma) | TGI (MDA-MB-231 breast) | TGI (TK-10 renal) | TGI (BT-549 breast) | TGI (OVCAR-4 ovarian) | TGI (NCI-H522 lung) | TGI (RPMI-8226 leukemia) | TGI (SNB-19 CNS) | TGI (CAKI-1 renal) | TGI (CCRF-CEM leukemia) | TGI (SK-OV-3 ovarian) | TGI (SF-295 CNS) | TGI (OVCAR-3 ovarian) | TGI (KM12 colon) | TGI (PC-3 prostate) | TGI (SN12C renal) | TGI (786-0 renal) | TGI (HCT-116 colon) | TGI (SF-268 CNS) | TGI (SF-539 CNS) | TGI (UACC-62 melanoma) | TGI (HOP-92 NSCLC) | TGI (T-47D breast) | TGI (HOP-62 NSCLC) | TGI (U251 CNS) | TGI (LOX IMVI melanoma) | TGI (HCC-2998 colon) | TGI (DU-145 prostate) | TGI (HT29 colon) | TGI (MDA-MB-435) | TGI (K-562 leukemia) | TGI (NCI/ADR-RES ovarian) | TGI (SK-MEL-2 melanoma) | TGI (NCI-H23 lung) | TGI (EKVX NSCLC) | TGI (HCT-15 colon) | TGI (SNB-75 CNS) | TGI (A549 NSCLC) | TGI (M14 melanoma) | TGI (UO-31 renal) | TGI (SW-620 colon) | TGI (MCF7 breast) | TGI (NCI-H460 lung)
inactive: GI50 (SK-MEL-28 melanoma) > 100 µM | GI50 (MDA-MB-231 breast) > 100 µM | GI50 (TK-10 renal) 42.6 µM | GI50 (BT-549 breast) > 100 µM | GI50 (OVCAR-4 ovarian) > 100 µM | GI50 (NCI-H522 lung) 75 µM | GI50 (RPMI-8226 leukemia) > 100 µM | GI50 (SNB-19 CNS) > 100 µM | GI50 (ACHN renal) 13.1 µM | GI50 (CAKI-1 renal) 89.1 µM | GI50 (CCRF-CEM leukemia) 39.2 µM | GI50 (SK-OV-3 ovarian) > 100 µM | GI50 (SF-295 CNS) 32.4 µM | GI50 (OVCAR-3 ovarian) 71.9 µM | GI50 (KM12 colon) > 100 µM | GI50 (PC-3 prostate) > 100 µM | GI50 (SN12C renal) > 100 µM | GI50 (786-0 renal) 67.7 µM | GI50 (SK-MEL-5 melanoma) 3.52 µM | GI50 (HCT-116 colon) 40.1 µM | GI50 (SF-268 CNS) > 100 µM | GI50 (SF-539 CNS) > 100 µM | GI50 (UACC-62 melanoma) 87.3 µM | GI50 (HOP-92 NSCLC) 64.2 µM | GI50 (T-47D breast) > 100 µM | GI50 (HOP-62 NSCLC) 39 µM | GI50 (U251 CNS) > 100 µM | GI50 (LOX IMVI melanoma) 13.5 µM | GI50 (HCC-2998 colon) > 100 µM | GI50 (DU-145 prostate) 17.5 µM | GI50 (OVCAR-8 ovarian) 21.6 µM | GI50 (HT29 colon) > 100 µM | GI50 (MDA-MB-435) 10.3 µM | GI50 (K-562 leukemia) 28.7 µM | GI50 (NCI/ADR-RES ovarian) > 100 µM | GI50 (SK-MEL-2 melanoma) 91.1 µM | GI50 (NCI-H23 lung) 42.8 µM | GI50 (EKVX NSCLC) > 100 µM | GI50 (HCT-15 colon) > 100 µM | GI50 (SNB-75 CNS) 72.8 µM | GI50 (A549 NSCLC) 93.5 µM | GI50 (M14 melanoma) 43 µM | GI50 (UO-31 renal) > 100 µM | GI50 (SW-620 colon) > 100 µM | GI50 (MCF7 breast) 7.5 µM | GI50 (NCI-H460 lung) 62.8 µM

CC(=O)NS(=O)(=O)c1ccc(-n2nc(-c3ccc(Cl)cc3)cc2-c2cc(O)ccc2O)cc1
39.7 µM: TGI (HCC-2998 colon)
29.6 µM: TGI (786-0 renal)
56.9 µM: TGI (CAKI-1 renal)
45.6 µM: TGI (UO-31 renal)
32.6 µM: TGI (NCI-H23 lung)
30 µM: TGI (PC-3 prostate)
26.5 µM: TGI (HCT-15 colon)
81.6 µM: TGI (SF-539 CNS)
40.8 µM: TGI (SN12C renal)
59.8 µM: TGI (RPMI-8226 leukemia)
47.5 µM: TGI (DU-145 prostate)
84.9 µM: TGI (OVCAR-3 ovarian)
22.8 µM: TGI (MDA-MB-231 breast)
27 µM: TGI (M14 melanoma)
27.6 µM: TGI (UACC-62 melanoma)
92.6 µM: TGI (TK-10 renal)
45.7 µM: TGI (UACC-257 melanoma)
36.2 µM: TGI (NCI-H226 lung)
93.4 µM: TGI (A498 renal)
> 100 µM: TGI (BT-549 breast) | TGI (NCI-H522 lung) | TGI (CCRF-CEM leukemia) | TGI (SF-295 CNS) | TGI (KM12 colon) | TGI (IGROV1 ovarian) | TGI (SK-MEL-5 melanoma) | TGI (SF-268 CNS) | TGI (SR leukemia) | TGI (MOLT-4 leukemia) | TGI (OVCAR-8 ovarian) | TGI (MDA-MB-435) | TGI (HS 578T breast) | TGI (SK-MEL-2 melanoma) | TGI (EKVX NSCLC) | TGI (A549 NSCLC) | TGI (HL-60(TB) leukemia) | TGI (SW-620 colon) | TGI (MCF7 breast) | TGI (NCI-H460 lung)
48.4 µM: TGI (HOP-92 NSCLC)
96 µM: TGI (K-562 leukemia)
70 µM: TGI (NCI/ADR-RES ovarian)
inactive: GI50 (MDA-MB-231 breast) 10.9 µM | GI50 (TK-10 renal) 31.7 µM | GI50 (BT-549 breast) > 100 µM | GI50 (NCI-H522 lung) 37 µM | GI50 (RPMI-8226 leukemia) 21.1 µM | GI50 (CAKI-1 renal) 28.1 µM | GI50 (CCRF-CEM leukemia) 5.55 µM | GI50 (SF-295 CNS) 30.9 µM | GI50 (OVCAR-3 ovarian) 32.6 µM | GI50 (KM12 colon) 41.1 µM | GI50 (PC-3 prostate) 13.8 µM | GI50 (IGROV1 ovarian) 92.8 µM | GI50 (SN12C renal) 19.6 µM | GI50 (786-0 renal) 16.1 µM | GI50 (SK-MEL-5 melanoma) 36.4 µM | GI50 (SF-268 CNS) 52.1 µM | GI50 (SF-539 CNS) 32.4 µM | GI50 (UACC-62 melanoma) 14.5 µM | GI50 (HOP-92 NSCLC) 17.1 µM | GI50 (SR leukemia) 39.5 µM | GI50 (A498 renal) 24.8 µM | GI50 (MOLT-4 leukemia) 87.3 µM | GI50 (OVCAR-5 ovarian) 20.1 µM | GI50 (HCC-2998 colon) 20.7 µM | GI50 (DU-145 prostate) 21.5 µM | GI50 (NCI-H226 lung) 14.4 µM | GI50 (OVCAR-8 ovarian) 33 µM | GI50 (MDA-MB-435) 31.6 µM | GI50 (K-562 leukemia) 29.9 µM | GI50 (NCI/ADR-RES ovarian) 27.2 µM | GI50 (HS 578T breast) 62.2 µM | GI50 (SK-MEL-2 melanoma) > 100 µM | GI50 (NCI-H23 lung) 18.6 µM | GI50 (EKVX NSCLC) 46.1 µM | GI50 (HCT-15 colon) 13.6 µM | GI50 (UACC-257 melanoma) 15.9 µM | GI50 (A549 NSCLC) 34.9 µM | GI50 (M14 melanoma) 14 µM | GI50 (UO-31 renal) 20.5 µM | GI50 (HL-60(TB) leukemia) 40.8 µM | GI50 (SW-620 colon) 75 µM | GI50 (MCF7 breast) > 100 µM | GI50 (NCI-H460 lung) > 100 µM
40 µM: TGI (OVCAR-5 ovarian)
